Results from a melting point compilation (Tetko et al.; mined from patent text by program, amines drawn as free bases though some values may be those of a salt).

| Structure (SMILES) | melting point [°C] |
| --- | --- |
| CCN(CC)C(=O)c1ccc(C(=C2CCNCC2)c2cccc3cccnc23)cc1 | > 170 |
| CCCc1nn(-c2ccc(C(F)(F)F)cn2)cc1CCCCn1cc(CCC(=O)O)c(-c2ccc(F)cc2)n1 | 119 to 121 |
| CCOC(=O)c1cn(NC)c2c(F)c(F)c(F)cc2c1=O | 189 |
| NC(=O)c1cc([N+](=O)[O-])cc(Br)n1 | 179 to 180 |
| O=C1CCNc2ccccc2N1c1ccccc1 | 170 to 171 |
| CCC(CC)c1nc(CN(C)C(=O)N[C@H](C(=O)N[C@@H](Cc2ccccc2)C[C@H](O)[C@H](Cc2ccccc2)NC(=O)OCc2cncs2)C(C)C)cs1 | 64 to 66 |
| CN(C(=O)c1ccccc1OCC(=O)O)c1ccccc1 | 148 |
| CNC(=CC#N)c1ccc2ccccc2c1 | 138 |
| C=CS(=O)(=O)CCCS(=O)(=O)C=C | 60 to 63 |
| CCCCC(=O)Nc1ccc(Cl)c(-n2nc(CCCC)c(Cc3ccc(-c4ccccc4S(=O)(=O)NC(=O)c4ccccc4Cl)cc3F)c2C#N)c1 | > 95 |
| COc1cc(OC)c2c(=O)[nH]c(-c3ccc(OCCNC(C)C)c(-c4ccc(S(C)(=O)=O)cc4C(F)(F)F)n3)nc2c1 | 199 to 201 |
| O=C(N[C@H](Cc1ccccc1)C(=O)O)OCc1ccc(COc2ccccc2)cc1 | 116 to 117 |
| CCN(CC)c1ccc(C2OC(=O)c3cc(N(C)C)ccc32)cc1 (stereo unspecified) | 165 to 166 |
| CN1c2ccc(S(=O)(=O)c3ccccc3)cc2C2C[C@H](N)CCC21 (stereo partly specified) | 217 to 219 |
| OC(CCCN1CCN(c2noc3ccccc23)CC1)c1ccc(F)cc1 (stereo unspecified) | 142 to 144 |
| CC(C)(Cc1cc2ccccc2[nH]1)[N+](=O)[O-] | 102 to 103 |
| Oc1cc(C(F)(F)F)nn1C1CCCCO1 (stereo unspecified) | 129 to 130 |
| CCC(CC)n1cnc2c1c(=O)n(C)c(=O)n2-c1ccc(Cl)cc1Cl | 158 to 159 |
| CCN1c2ncc(CCc3ccccc3)cc2C(=O)Nc2c(C)ccnc21 | 174 to 175 |
| COc1ccc(-c2c(Br)c(CBr)nc3sc4c(c23)CCN(Cc2ccccc2)C4)cc1 | 177 to 178 |
| CCCC1CCC2(C)C(=CCC3C4CCC(=O)C4(C)CCC32)C1 (stereo unspecified) | 103 to 105 |
| O=C1CC(c2ccccc2OCc2ccccc2)=Nc2ccc(N3CCOCC3)cc21 | 281 to 283 |
| O=C(Nc1nnn[nH]1)c1cnc2sc3ccc(Cl)cc3n2c1=O | > 300 |
| S=C=NCCC1CC(c2ccccc2)=NO1 (stereo unspecified) | 54 to 56 |

| Structure (SMILES) | melting point [°C] |
| --- | --- |
| O=C(O)C(Cc1ccccc1)Oc1ccc2cc(-c3csc(-c4ccccc4)n3)ccc2c1 (stereo unspecified) | 154 to 160 |
| COc1nc2cc(C(c3ccccc3)n3ccnc3)ccc2[nH]1 (stereo unspecified) | 110 |
| O=[N+]([O-])c1cc2c(Nc3cc(Cl)c(Cl)cc3F)ncnc2cc1OCCOCCO | 149 |
| O=C(c1cccc(F)c1)N1Cc2c(-c3ccc(F)cc3)ncn2-c2ccccc21 | 176 to 177 |
| CNC(=C[N+](=O)[O-])NCCSCc1nc(CN(C)C)sc1C | 104 to 106 |
| COCCOc1ccc(CCNC(=O)/C=C/c2cccs2)cc1S(=O)(=O)NC(=S)NC(C)C | 101 |
| COC1=Cc2c(n(C)c(=O)n2C)CC1=NNC(=N)N | 260 |
| C=Cn1ccnc1C=O | 48 to 51 |
| Cc1nc(C)c2c(n1)CN=C(c1ccccc1)c1cc(Cl)ccc1-2 | 121 to 124 |
| Nc1cc(Cl)cc(NCCO)c1[N+](=O)[O-] | 183 |
| CCC[C@H]1CC[C@H](c2ccc(CCC(F)F)cc2)CC1 | 12 |
| O=C(Nc1ccc(Cl)c(-c2ccnc3c(C(=O)c4cccs4)cnn23)c1)c1ccccc1 | 194 to 195 |
| C=CCC1(Cc2ncn(C(c3ccccc3)(c3ccccc3)c3ccccc3)c2C)CCc2c(C)c3ccccc3n2C1=O (stereo unspecified) | 83 to 85 |
| C=CCN(CC=C)C(=O)n1cnc(S(=O)(=O)CCOCC)n1 | 62 to 63 |
| CCN(CC)CCCN1C(=S)c2cccc3cccc1c23 | 128 |
| O=C1CN(Cc2cccc(I)c2)S(=O)(=O)N1 | 101 to 103 |
| Cn1cc(-c2ccccc2)c(=O)c(-c2ccc3ccccc3c2)c1 | 101 to 105 |
| CCN1CN(c2ccc(Cl)cc2)c2ncccc2C1=O | 100 to 101 |
| CCCCOc1ccc(Cc2nn(-c3ccccc3Cl)c(=O)o2)cc1 | 63 |
| CNc1nc(S(=O)(=O)Nc2c(Cl)cccc2Cl)n[nH]1 | 285 to 287 |
| N#COc1ccc(C=CC(=O)c2ccc(OC#N)cc2)cc1 | 171 to 173 |
| CCOC(=O)C(C#N)=NOS(=O)(=O)c1ccc(C)cc1 | 84 to 87 |
| C(=C\c1cc(/C=C/c2ccc3cc[nH]c3c2)[nH]n1)/c1ccc(N2CCCCC2)cc1 | 189 to 191 |
| CNC(=O)C(Cc1ccc(OC)cc1)NC(=O)C(CC(C)C)C(S)CC(=O)NCC(=O)O (stereo unspecified) | 228 to 231 |

| Structure (SMILES) | melting point [°C] |
| --- | --- |
| OCCCN1CCC(C(O)(c2ccc(F)cc2)c2ccc(F)cc2)CC1 | 155 to 157 |
| CCCNc1cc(=O)[nH]c(-c2ccccc2OCCC)n1 | 172 to 173 |
| Cc1c(-c2ccc(O)cc2)n(Cc2ccc(OCCCN3CCCCC3)cc2)c2ccc(O)cc12 | 125 to 130 |
| COC(=O)C(C)(C)OCc1cc(-c2ccc(Cl)s2)no1 | 128 to 130 |
| N#CC(=NNc1c(Cl)cc(C(F)(F)F)cc1Cl)c1ccc(Cl)cc1 | 164 to 165 |
| COc1ccc2c(c1)C(=O)C(=O)N2CCN(C(C)C)C(C)C | 81 to 82.5 |
| COc1c(OCC(F)(F)C(F)(F)F)ccnc1CSc1nc2ccccc2[nH]1 | 116 to 117 |
| Oc1ccc(Oc2ccc(C(F)(F)F)cc2Cl)cc1 | 55 to 56 |
| C=CCN(CC=C)Cc1c(-c2ccccc2)sc(N)c1C(=O)c1ccc(Cl)cc1 | 155 to 156 |
| O=Cc1cccc(Sc2ccc(O)cc2)c1O | 97 to 98 |
| O=C(O)C(Cc1ccccc1)NC(=O)N1CCc2cc(S(=O)(=O)N3CCN(c4cccc(Cl)c4)CC3)ccc21 (stereo unspecified) | 134 to 135 |
| CC(C)(C)[Si](C)(C)OC(CCCO)COc1ccc2c(=O)cc(-c3ccccc3)oc2c1 (stereo unspecified) | 124 to 125 |
| O=c1nc(N2CCCc3c(Br)cccc32)sc2ncccc12 | 173 to 174 |
| CC(Oc1ccc(-c2cccc(NC(N)=O)c2)cc1)C(O)CCc1cccnc1 (stereo unspecified) | 75 to 76 |
| CC(C(=O)N(C)C)n1ccc(-c2ccc(Cl)cc2)n1 (stereo unspecified) | 95 to 99 |
| COCc1sc(N)nc1C | 132 to 135 |
| ClCc1ccc(Oc2ccc3ccc(Oc4ccc(CCl)cc4)cc3c2)cc1 | 95 to 97 |
| CCC(=O)NCCCSc1ccc(Cl)cc1 | 69 to 70 |
| COC(=O)c1nc(-c2ccc(Cl)cc2)c(F)c(N)c1OC | 93 to 94 |
| COc1cc(-c2ccccc2F)nc(-c2cccc(C)n2)n1 | 99.5 |
| Nc1nc(N)c2ncn(C3OC(CO)C(O)C3O)c2n1 (stereo unspecified) | 238 to 240 |
| Cn1c(CCl)cnc1[N+](=O)[O-] | 100 to 101 |

Results, then the molecule that gave them:

| melting point [°C] | Structure (SMILES) |
| --- | --- |
| 105 to 106 | CCOC(=O)CCn1nc(-c2cc(C(C)(C)C)c(O)c(C(C)(C)C)c2)c2cccnc21 |
| 60 to 100 | O=C(N[C@H]1CCC(=O)N2CCC[C@@H](C(=O)O)N2C1=O)OCc1ccccc1 |
| 112 to 114 | Cc1ccc(-c2nc(SCc3ccccn3)n[nH]2)c(C)c1 |
| 125 to 126 | Cc1ccc(C)n1-c1cc(F)c(C2(O)CCSCC2)c(F)c1 |
| 140 to 141 | Cc1nc(C2CCC(NC(=O)OCC3c4ccccc4-c4ccccc43)CC2)cs1 (stereo unspecified) |
| 74 to 76 | COC(=O)c1[nH]c(C)c(C)c1OCCCCCl |
| 89 to 91 | CCc1c(OC)nc(OC)nc1C(=O)c1cc(C)cc(C=O)c1 |
| 159 to 161 | COc1c(C)c(C)c(NC(=O)OC(C)(C)C)c(C)c1Br |
| 109 | N#Cc1cc([N+](=O)[O-])ccc1N1CCC(=O)CC1 |
| 161 to 163 | CC1(C)CCC(C)(C)c2cc3c(cc21)C(=O)C=CC3=O |
| 252 to 253 | NC(=O)c1coc2c1C(=O)CC(c1ccccc1)C2 (stereo unspecified) |
| 147 to 150 | COC1(c2ccccc2)CCc2c(C(=O)N3CCC3)cc3c(nc(C)n3C)c2O1 (stereo unspecified) |
| 184 to 186 | C[Si](C)(C)c1cccc(Cl)c1C(=O)NC(c1ccccc1)n1nnc2ccccc21 (stereo unspecified) |
| 265 to 268 | COc1ccc2c(c1)S(=O)(=O)c1cc(OC(C)=O)c(OC)cc1N2 |
| 201 | COC(=O)NN=C1C(=O)Nc2ccc(C3=NNC(=O)SC3C)cc21 (stereo unspecified) |
| 116 to 118 | CCOC(=O)c1cc2cc(N3CCN(C(=O)OC(C)(C)C)CC3)ccc2o1 |

| melting point [°C] | Structure (SMILES) |
| --- | --- |
| 87 to 89 | C=CC(=O)OCCCNC(=O)CCc1cc(-n2nc3ccccc3n2)c(O)c(C(C)(C)C)c1 |
| 217 to 218 | CCc1ccnc(C(=O)c2[nH]c3ccc(Cl)cc3c2CC(=O)O)c1 |
| 132 to 134 | Cc1ccc(N2CCSC2N)c([N+](=O)[O-])c1 (stereo unspecified) |
| 370 | O=C1NC(=O)C2(c3ccc4ccc(O)nc4n3)C=CC=CC12 (stereo unspecified) |
| 113 to 115 | CCOC(=O)c1cnc2c(c(C)nc3cc(C)nn32)c1NC(C)CC (stereo unspecified) |
| 126 to 130 | CCC12CCC3c4ccc(OC)cc4CCC3C1CCC2O (stereo unspecified) |
| 184 to 186 | Cc1c(C)c2c(c(C)c1O)CCC(C)(C1N[C@H](C(=O)O)CS1)O2 (stereo partly specified) |
| 211 to 213 | CCOc1cc2c(cc1OCC)[C@@H]1CCCC[C@@H]1N=C2c1ccc(O)nc1 (racemic) |
| 251 to 252 | Nc1ccccc1C(=O)Nc1cc2c(cc1F)OCC(=O)N2 |
| 235 to 237 | CN1CC[C@@H](c2c(O)cc(O)c3c(=O)cc(-c4ccccc4Br)oc23)[C@@H]1CO |
| 200 to 201 | CCc1oc2ccccc2c1C(=O)c1cc(C(C)C)c(OS(=O)(=O)c2ccc(C(=O)O)c(O)c2)c(C(C)C)c1 |
| 95 to 97 | O=C(O)CCCCCc1nn(-c2ccccc2)c2c1CCCC2 |
| 91 to 93 | Cc1cccc2c1nc(COc1ccc(Cl)cc1)n2CCC(Cc1ccccc1)C(=O)NCCCN1CCCCC1 (stereo unspecified) |
| > 300 | CCc1[nH]n(C2CCCC2)c2nc(-c3ccc4nccn4c3)nc(=O)c1-2 |
| 81 to 83 | CC(=Cc1ccccc1)c1ccc2c(c1)C(C)(C)CCS2 |
